Publication PMC5937946 (Biochemistry, 2017)
Read-outs that look alike come from different tables or passages of the source.

What was measured:
[1] = tested on: C. albicans cell-associated Cu; test: ICP-MS of cell-associated Cu content; format: cell-based, Candida albicans; conditions: cells grown overnight with BCS
[2] = tested on: C. albicans (ATCC, SC5314)
[3] = tested on: C. albicans (ATCC, SC5314); test: Antifungal susceptibility assay; conditions: for growth inhibition of C. albicans by metal ion alone: concentration range tested 0–100 µM, no peptide
[4] = pH 7.4; cited from earlier work
[5] = pH 7.4; cited from earlier work; remark: listed apart in the source

SMILES: Cc1cc(-c2ccc(S(=O)(=O)O)cc2)c2ccc3c(-c4ccc(S(=O)(=O)O)cc4)cc(C)nc3c2n1 [BCS, bathocuproine disulphonate]
- decrease in cell-associated Cu compared to basal level [1]: 70%
- concentrations well tolerated by C. albicans, ligand alone [2]: ≤ 2000 µM

SMILES: O=S(=O)([O-])[O-].[Cu+2] [CuSO4, copper sulfate]
- growth inhibition of C. albicans by metal ion alone [3]: Neither Cu(II) nor Fe(III) by themselves inhibited growth

SMILES: O=C(O)CN(CCN(CC(=O)O)CC(=O)O)CC(=O)O [EDTA, ethylenediaminetetraacetic acid]
- concentrations well tolerated by C. albicans, ligand alone ([3]; initial susceptibility testing of the ligands alone): ≤ 250 µM

SMILES: [Cl][Fe]([Cl])[Cl] [Fe(III), FeCl3]
- growth inhibition of C. albicans by metal ion alone [3]: Neither Cu(II) nor Fe(III) by themselves inhibited growth

SMILES: O=S(=O)([O-])c1ccc(-c2nnc(-c3ccccn3)nc2-c2ccc(S(=O)(=O)[O-])cc2)cc1.[Na+].[Na+] [Fz, Ferrozine]
- log KFz2Cu(I) [4]: 11.56

SMILES: O=C(O)CN(CC(=O)O)CC(=O)O [NTA, nitrilotriacetic acid]
- log KNTA(Cu(II)) [5]: 10.68
